Data published in patent US20230301982A1, “N'-(2-CHLORO-6-METHYLBENZOYL)-4-METHYL-3-[2-(3-QUINOLYL)ETHYNYL]-BENZOHYDRAZIDE FOR TREATMENT OF ALZHEIMER'S DISEASE” (SUN PHARMA ADVANCED RESEARCH COMPANY LIMITED, priority 2020, published 2023).
Values belong to the compound of their own block, whether it stands above or below them.

What was measured:
[1] = test system: K562 cells; test: In-vitro Cell Proliferation Assay (K562 cells; measure of endogenous Bcr-Abl kinase inhibition); format: cell-based; conditions: for inhibition at 0.0001 µM: Homo sapiens, read-out: % inhibition (at 0.1 nM), 0.1 nM, cell proliferation of K562 cells
From the text: (For experimental procedure, refer to the ‘416 publication under In-vitro Cell Proliferation Assay heading).

[2] = Concentration of compounds in brain and plasma; format: in vivo
[3] = molecular target: hERG channel (Homo sapiens, UniProt Q12809); test: in vitro effect on hERG channel; conditions: at a therapeutically effective dose
Chain of hERG channel (Q12809 whole entry): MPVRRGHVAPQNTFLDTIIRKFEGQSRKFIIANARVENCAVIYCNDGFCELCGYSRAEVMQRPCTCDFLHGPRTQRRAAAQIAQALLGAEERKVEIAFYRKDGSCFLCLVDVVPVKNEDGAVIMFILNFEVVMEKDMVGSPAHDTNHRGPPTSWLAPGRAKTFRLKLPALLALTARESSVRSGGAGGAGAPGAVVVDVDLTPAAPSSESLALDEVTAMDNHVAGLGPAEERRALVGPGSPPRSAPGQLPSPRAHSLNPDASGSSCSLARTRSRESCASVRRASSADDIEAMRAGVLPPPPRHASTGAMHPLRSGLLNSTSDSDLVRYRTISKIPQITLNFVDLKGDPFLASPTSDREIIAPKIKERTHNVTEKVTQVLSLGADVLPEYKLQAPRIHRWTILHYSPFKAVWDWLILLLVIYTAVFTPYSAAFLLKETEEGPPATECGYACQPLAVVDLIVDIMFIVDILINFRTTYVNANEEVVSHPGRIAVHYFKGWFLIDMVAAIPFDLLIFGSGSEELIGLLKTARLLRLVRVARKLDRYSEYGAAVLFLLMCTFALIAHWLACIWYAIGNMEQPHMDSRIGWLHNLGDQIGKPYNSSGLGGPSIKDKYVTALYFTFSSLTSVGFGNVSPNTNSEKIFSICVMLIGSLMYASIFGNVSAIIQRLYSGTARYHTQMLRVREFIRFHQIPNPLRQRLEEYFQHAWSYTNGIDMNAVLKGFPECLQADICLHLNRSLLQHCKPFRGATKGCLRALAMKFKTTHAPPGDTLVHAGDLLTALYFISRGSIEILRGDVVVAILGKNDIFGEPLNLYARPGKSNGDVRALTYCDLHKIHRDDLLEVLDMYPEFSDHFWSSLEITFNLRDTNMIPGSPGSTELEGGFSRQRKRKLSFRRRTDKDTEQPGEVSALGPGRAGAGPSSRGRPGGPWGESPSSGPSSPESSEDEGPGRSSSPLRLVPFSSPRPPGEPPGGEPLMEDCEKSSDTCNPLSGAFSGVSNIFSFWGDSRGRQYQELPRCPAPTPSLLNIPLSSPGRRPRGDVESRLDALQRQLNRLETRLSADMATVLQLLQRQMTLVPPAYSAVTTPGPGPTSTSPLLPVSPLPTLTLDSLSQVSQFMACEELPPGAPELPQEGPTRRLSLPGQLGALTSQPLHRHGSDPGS

[4] = test system: ECG parameters (QT interval, QTc interval, QTCf interval and heart rate); test: in vivo effect on ECG parameters in conscious beagle dogs; conditions: at a therapeutically effective dose
[5] = test system: ECG parameters (QT interval, QTc interval, QTCf interval and heart rate); test: in vivo effect on ECG parameters in guinea pig; conditions: at a therapeutically effective dose
[6] = test system: total Aβ; test: Total Aβ content in cortex of Tg APP/PS1 mice using ELISA; format: in vivo
Description: (§1) Six month old male APP/PS1 mice which show little overt behavioral or pathological phenotype of AD were used. All experiments involving animals were performed in accordance with institutional guidelines for the use and care of animals after approval from the Institutional Animal Ethics Committee (IAEC), Central Animal Facility, Indian Institute of Science. Only male mice were used for the study and were housed at ambient temperature of 25° C. under 12 hours light-dark cycle with free access to food chow and drinking water. All mice were dosed once a day, orally with placebo for Compound 1 at 30 and 45 mg/kg for a period of three months.
(§2) After completion of treatment phase, mice were subjected to behavioural assessment using CFC test, followed by biochemical estimation of brain Aβ using an enzyme-linked immunosorbent assay (ELISA) and Aβ plaque load using Immunohistochemistry (IHC).
The animals were (n=10/treatment) deeply anesthetized with a mixture of xylazine and ketamine (1:8), perfused with 10 mL of 1x saline for 4 minutes, their brains were excised, homogenized immediately in 0.5 mL ELISA buffer, and centrifuged at 5000xg for 15 minutes at 4° C. to precipitate the pellet. Total Aβ was estimated in the cortex of APP/PS1 mice using ELISA assay kit as per the manufacturer instruction.

[7] = test system: Aβ plaque; test: Aβ plaque load (% area fraction) in cortex of Tg APP/PS1 mice using IHC; format: in vivo; conditions: 30 mg/kg orally once a day for three months
Description: as §1, §2
Mouse brains (n=5/treatment) were fixed in 4% (w/v) buffered paraformaldehyde (PFA). The brain tissues were processed for paraffin embedding and serial sections ([…]) were cut using microtome (Leica Biosystems Inc., Buffalo Grove, IL, USA). Sections were de-waxed by xylene treatment followed by a brief wash with chloroform to remove the residual xylene. Endogenous peroxidase activity was blocked with methanol containing hydrogen peroxide (3%, v/v) for 30 minutes. […]

[8] = test system: Tg APP/PS1 mice; test: Contextual fear conditioning (CFC): freezing behaviour in Tg APP/PS1 mice; format: in vivo; conditions: 24 hours after fear conditioning
Description: as §1, §2
The CFC test was performed using an apparatus from San Diego Instruments (CA, USA). The CFC training context was rectangular in shape, identity of the context was maintained with the presence of distinct odor (2% acetic acid, v/v). The conditioning chamber was cleaned with 70% ethanol before and after each session. […] Contextual fear memory was assessed by returning mice to the training context 24 hours after fear conditioning and analyzing freezing during a test period of 2 minutes. […]

[9] = test system: Aβ42; test: Estimation of Aβ42 and Aβ42/Aβ40 ratio in TgSwDI mice using ELISA; format: in vivo; conditions: o.d., 96 days, TgSwDI mice cortex
Description: Female TgSwDI (expresses human APP gene containing Swedish, Dutch, and Iowa mutations) of 5-7 months of age were used for the study. Animals were habituated for handling for one week prior to initiation of dosing. All experiments involving animals were performed in accordance with institutional guidelines for the use and care of animals after approval from the Institutional Animal Ethics Committee (IAEC), Sun Pharma Advanced Research Company (SPARC) Ltd. Mice were housed at an ambient temperature of 25° C. under 12 hours light-dark cycle with free access to food chow and drinking water. Animals were treated with assigned treatments p.o., o.d., for a period of 96 days. […] After completion of treatment phase, mice from each treatment group were perfused with ice-cold phosphate buffered saline (PBS, pH 7.4), brain was excised, cortex was isolated and processed for preparation of lysates as per protocol provided by Invitrogen ELISA kit. Estimation of Aβ42 and Aβ40 were carried out as per the instructions provided by Invitrogen user manual. Ratio of Aβ42/40 was calculated.

[10] = 30 mg/kg orally once a day for three months
[11] = 45 mg/kg orally once a day for three months

higher ratio of brain to plasma concentration compared to nilotinib ([2]; at 1 hour, versus nilotinib): about 40 times | brain penetration compared with dasatinib ([2]; versus dasatinib): significantly better brain penetration | ratio of concentration in brain to plasma as compared to nilotinib or dasatinib ([2]; versus nilotinib or dasatinib): significantly higher
SMILES: Cc1ccc(C(=O)NNC(=O)c2c(C)cccc2Cl)cc1C#Cc1cnc2ccccc2c1 [Compound 1, N′-(2-chloro-6-methylbenzoyl)-4-methyl-3-[2-(3-quinolyl)ethynyl]-benzohydrazide]
inhibition at 0.0001 µM [1]: 37% | potency (inhibition of K562 cell proliferation) ([1]; at 0.1 nM, Compound 1 versus similar compounds from the ‘416 publication): significantly higher | cardiovascular side effects: in vitro effect on hERG channel [3]: devoid of cardiovascular side effects | cardiovascular side effects: in vivo effect on ECG parameters (QT, QTc, QTCf interval, heart rate) [4]: devoid of cardiovascular side effects | cardiovascular side effects: in vivo effect on ECG parameters (QT, QTc, QTCf interval, heart rate) [5]: devoid of cardiovascular side effects | total Aβ content in cortex compared to placebo treated group [6, 10]: significant reduction | total Aβ content in cortex compared to placebo treated group [6, 11]: significant reduction | Aβ plaque (% area fraction) in cortex compared to placebo [7]: significantly reduced | % freezing of mice (CFC) compared to placebo treated group [8, 10]: significant increase | % freezing of mice (CFC) compared to placebo treated group [8, 11]: significant increase | effect on Aβ42 content compared to placebo group ([9]; 30 mg/kg p.o.): statistically significant | effect on Aβ42 content compared to placebo group ([9]; 45 mg/kg p.o.): statistically significant | Aβ42/Aβ40 ratio, trend over doses ([9]; 15, 30, and 45 mg/kg p.o.): dose-dependent reduction | Aβ42 content, trend over doses ([9]; 15, 30, and 45 mg/kg p.o.): dose-dependent reduction

SMILES: Cc1ccc(C(=O)NNC(=O)c2c(C)cccc2Cl)cc1C#Cc1ccc2ncccc2c1 [Compound 1.10 of the ‘416 publication]
inhibition at 0.0001 µM [1]: 0%

SMILES: Cc1cn(-c2cc(NC(=O)c3ccc(C)c(Nc4nccc(-c5cccnc5)n4)c3)cc(C(F)(F)F)c2)cn1 [Nilotinib, nilotinib, reference compound]
effect on Aβ42 content compared to placebo group ([9]; 30 mg/kg p.o.): no statistically significant reduction

SMILES: Cc1cccc(Cl)c1C(=O)NNC(=O)c1ccc(F)c(C#Cc2cnc3ccccc3c2)c1 [Compound 1.21 of the ‘416 publication]
inhibition at 0.0001 µM [1]: 6%

SMILES: Cc1ccc(C(=O)NNC(=O)c2c(C)cccc2Cl)cc1C#Cc1cnc2ccc(F)cc2c1 [Compound 1.55 of the ‘416 publication]
inhibition at 0.0001 µM [1]: 0%

SMILES: Cc1ccc(C(=O)NNC(=O)c2c(C)cccc2Cl)cc1C#Cc1cnc2ccc(Cl)cc2c1 [Compound 1.50 of the ‘416 publication]
inhibition at 0.0001 µM [1]: 0%

SMILES: Cc1cccc(Cl)c1C(=O)NNC(=O)c1cccc(C#Cc2cnc3ccccc3c2)c1 [Compound 1.59 of the ‘416 publication]
inhibition at 0.0001 µM [1]: 2%
